In patent publication US20010038824A1, “Intranasal cyclic peptide formulations” (priority 2000, published 2001):
Numbered stars: 1 amine (or outer) side, 2 acyl side, 3 side chain; on linkers, the order of the positions; unused ones are H or OH. Bridge positions count the residues as written; N and C are the ends. Square brackets hold non-standard residues; d marks the D form. Peptide text beside a SMILES is read from it. * marks the point of attachment. ξ: configuration not given here. Hexadecanoyl(3R-amino) = CCCCCCCCCCCCC[C@H](CC(=O)[*:2])N[*:1]; X5 = CC(C)CCCOc1ccc(-c2ccc(CC[C@H](CC(=O)[*:1])N[*:2])cc2)cc1; X11 = CCCCCOc1ccc(-c2ccc(CC[C@H](CC(=O)[*:1])N[*:2])cc2)cc1; X8 = CCCCCCCCCOc1ccc2cc(CC[C@H](CC(=O)[*:1])N[*:2])ccc2c1; Orn(Nα,Nα-(2-aminoethyl)2) = NCCC[C@@H](C(=O)*)N(CCN)CCN; ξTyr(3-NO2) = NC(Cc1ccc(O)c([N+](=O)[O-])c1)C(=O)O; X15 = CCCCCCCCCCCCCCC[C@H](CC(=O)[*:2])N(C)[*:1]; X16 = NCC(=O)Nc1cc(CC(N[*:1])C(=O)[*:2])ccc1O; X4 = CCCCCCCCCCCCC[C@H](CC(=O)[*:1])O[*:2]; X3 = NCCCN(CCCC(N[*:1])C(=O)[*:2])[*:3]; X2 = NC(=O)CC(O)C(N[*:1])C(=O)[*:2]; X12 = CN(C)CCCC(N[*:1])C(=O)[*:2]; X1 = O=C(C1C(O)CCN1[*:1])[*:2]; ξOrn(3-OH) = NCCC(O)C(N)C(=O)O; ξY = NC(Cc1ccc(O)cc1)C(=O)O; X14 = NCCCNC(CCCN)C(=O)*; X13 = CCCCCCCCCCCCCCCN*; ξHyp = O=C(O)C1CC(O)CN1; ξOrn = NCCCC(N)C(=O)O; ξT = CC(O)C(N)C(=O)O; ξV = CC(C)C(N)C(=O)O; ξP = O=C(O)C1CCCN1; ξA = CC(N)C(=O)O; Sar = CNCC(=O)O

Key:
Assay type in all cases: cell-based
mouse hepatocytes = test: In vitro hepatotoxicity test; details: mouse hepatocyte monolayers, 1 day exposure, morphological evaluation
Source text: The mouse hepatocytes were isolated by a collagenase digestion and cultured in microtest plates. The hepatocyte monolayers were exposed to the test Aerothricins in the culture system for 1 day. After the culture period, the hepatocytes were observed under a microscope and evaluated morphologically. The degree of the morphological alteration (degeneration) of the hepatocytes by the test Aerothricins were compared with WF11243 and LY303366.

[1] = test system: Aspegillus fumigatus CF1003; test: In vitro antifungal activity, broth micro-dilution; details: YNB medium with 0.2% agarose, 1-2 days at 35° C.
Experimental: (§1) The in vitro antifungal activities of the representative Aerothricins of the present study were evaluated by determining the 50% inhibitory concentration (IC50), which was calculated as the lowest concentration of an antifungal to inhibit the growth of fungus to […] turbidity compared with the drug-free control growth spectrophotometrically.
(§2) The IC50 values were determined by the broth micro-dilution procedure based on NCCLS Approved Standard with the following minor modifications (National Committee for Clinical Laboratory Standards. (1997) Reference method for broth dilution antifungal susceptibility testing for yeasts. Approved standard. Document M27-A). Yeast Nitrogen Base (YNB; Difco Lab.) supplemented with 1% glucose and 0.25% K2HPO4 was used as testing medium for yeast, the same medium solidified with 0.2% low melting point agarose (BRL) was used for filamentous fungi. Inoculum size was 1-3×10^4 cells/ml, and incubation was performed for 1-2 days at 35° C.

Candida albicans CY1002 = test: In vitro antifungal activity, broth micro-dilution; details: YNB medium, 1-2 days at 35° C.
Experimental: as §1, §2

Fusarium solani CF1088 = test: In vitro antifungal activity, broth micro-dilution; details: YNB medium with 0.2% agarose, 1-2 days at 35° C.
Experimental: as §1, §2

| Compound | Cytotoxicity to hepatocyte (mouse hepatocytes) [µg/mL] | In vitro Antifungal activity, IC50, Aspegillus fumigatus CF1003 [1] [mg/L] | In vitro Antifungal activity, IC50, Candida albicans CY1002 (Candida albicans CY1002) [mg/L] | In vitro Antifungal activity, IC50, Fusarium solani CF1088 (Fusarium solani CF1088) [mg/L] |
| --- | --- | --- | --- | --- |
| CCCCCCCCCCOc1ccc(CC[C@@H]2CC(=O)NC(C(C)O)C(=O)NC(C)C(=O)NC(Cc3ccc(O)cc3)C(=O)NC(C(C)C)C(=O)N3CC(O)CC3C(=O)NC(C(C)O)C(=O)NC(C(C)O)C(=O)N3CCC(O)C3C(=O)NC(C(O)CC(N)=O)C(=O)NCC(=O)NC(C(C)O)C(=O)NC(CCCN)C(=O)N2)cc1 (single isomer, unassigned) [Aerothricin 47] | >100 | – | – | – |
| CCCCCCCCCCCCC[C@@H]1CC(=O)NC(C(C)O)C(=O)NC(C)C(=O)NC(Cc2ccc(OC)cc2)C(=O)NC(C(C)C)C(=O)N2CC(O)CC2C(=O)NC(C(C)O)C(=O)NC(C(C)O)C(=O)N2CCC(O)C2C(=O)NC(C(O)CC(N)=O)C(=O)NCC(=O)NC(C(C)O)C(=O)NC(CCCN(C)C)C(=O)O1 (stereo partly shown) [Aerothricin 12] ([ξT][ξA][ξY](Me)[ξV][ξHyp][ξT][ξT][X1][X2]G[ξT][X12]; linker N-C via X4) | – | 0.10 | 0.09 | 2.20 |
| CCCCCCCCCCCCC[C@@H]1CC(=O)NC(C(C)O)C(=O)NC(C)C(=O)NC(Cc2ccc(O)cc2)C(=O)NC(C(C)C)C(=O)N2CC(O)CC2C(=O)NC(C(C)O)C(=O)NC(C(C)O)C(=O)N2CCC(O)C2C(=O)NC(C(O)CC(N)=O)C(=O)NCC(=O)NC(C(C)O)C(=O)NC(CCCNC(=O)CNC)C(=O)O1 (stereo partly shown) [Aerothricin 14] ([ξT][ξA][ξY][ξV][ξHyp][ξT][ξT][X1][X2]G[ξT][ξOrn](Sar); linker N-C via X4) | >100 | – | – | – |
| CCCCCCCCCCCCC[C@@H]1CC(=O)NC(C(C)O)C(=O)NC(C)C(=O)NC(Cc2ccc(O)cc2)C(=O)NC(C(C)C)C(=O)N2CC(O)CC2C(=O)NC(C(C)O)C(=O)NC(C(C)O)C(=O)N2CCC(O)C2C(=O)NC(C(O)CC(N)=O)C(=O)NCC(=O)NC(C(C)O)C(=O)NC(CCCNC(=O)C2CCCN2)C(=O)O1 (stereo partly shown) [Aerothricin 15] ([ξT][ξA][ξY][ξV][ξHyp][ξT][ξT][X1][X2]G[ξT][ξOrn](ξP); linker N-C via X4) | >100 | – | – | – |
| CCCCCCCCCCCCC[C@@H]1CC(=O)NC(C(C)O)C(=O)NC(C)C(=O)NC(Cc2ccc(O)c(NC(=O)CN)c2)C(=O)NC(C(C)C)C(=O)N2CC(O)CC2C(=O)NC(C(C)O)C(=O)NC(C(C)O)C(=O)N2CCC(O)C2C(=O)NC(C(O)CC(N)=O)C(=O)NCC(=O)NC(C(C)O)C(=O)NC(CCCNC(=O)CN)C(=O)O1 (stereo partly shown) [Aerothricin 21] ([ξT][ξA][X16][ξV][ξHyp][ξT][ξT][X1][X2]G[ξT][ξOrn](Gly); linker N-C via X4) | >100 | – | – | – |
| CCCCCCCCCCCCC[C@@H]1CC(=O)NC(C(C)O)C(=O)NC(C)C(=O)NC(Cc2ccc(O)cc2)C(=O)NC(C(C)C)C(=O)N2CC(O)CC2C(=O)NC(C(C)O)C(=O)NC(C(C)O)C(=O)N2CCC(O)C2C(=O)NC(C(O)CCN)C(=O)NCC(=O)NC(C(C)O)C(=O)NC(CCCN)C(=O)O1 (stereo partly shown) [Aerothricin 31] ([ξT][ξA][ξY][ξV][ξHyp][ξT][ξT][X1][ξOrn(3-OH)]G[ξT][ξOrn]; linker N-C via X4) | – | 0.49 | 0.07 | 0.70 |
| CCCCCCCCCCCCC[C@@H]1CC(=O)NC(C(C)O)C(=O)NC(C)C(=O)NC(Cc2ccc(O)c([N+](=O)[O-])c2)C(=O)NC(C(C)C)C(=O)N2CC(O)CC2C(=O)NC(C(C)O)C(=O)NC(C(C)O)C(=O)N2CCC(O)C2C(=O)NC(C(O)CC(N)=O)C(=O)NCC(=O)NC(C(C)O)C(=O)NC(CCCN)C(=O)N1 (stereo partly drawn) [Aerothricin 39] (cyclo(G[ξT][ξOrn][Hexadecanoyl(3R-amino)][ξT][ξA][ξTyr(3-NO2)][ξV][ξHyp][ξT][ξT][X1][X2])) | – | 0.17 | 0.09 | 0.70 |
| CC(C)CCCOc1ccc(-c2ccc(CC[C@@H]3CC(=O)NC(C(C)O)C(=O)NC(C)C(=O)NC(Cc4ccc(O)cc4)C(=O)NC(C(C)C)C(=O)N4CC(O)CC4C(=O)NC(C(C)O)C(=O)NC(C(C)O)C(=O)N4CCC(O)C4C(=O)NC(C(O)CC(N)=O)C(=O)NCC(=O)NC(C(C)O)C(=O)NC(CCCN)C(=O)N3)cc2)cc1 (stereo partly shown) [Aerothricin 45] ([ξT][ξA][ξY][ξV][ξHyp][ξT][ξT][X1][X2]G[ξT][ξOrn]; linker N-C via X5) | >100 | – | – | – |
| CCCCCCCCCOc1ccc2cc(CC[C@@H]3CC(=O)NC(C(C)O)C(=O)NC(C)C(=O)NC(Cc4ccc(O)cc4)C(=O)NC(C(C)C)C(=O)N4CC(O)CC4C(=O)NC(C(C)O)C(=O)NC(C(C)O)C(=O)N4CCC(O)C4C(=O)NC(C(O)CC(N)=O)C(=O)NCC(=O)NC(C(C)O)C(=O)NC(CCCN)C(=O)N3)ccc2c1 (stereo partly shown) [Aerothricin 53] ([ξT][ξA][ξY][ξV][ξHyp][ξT][ξT][X1][X2]G[ξT][ξOrn]; linker N-C via X8) | >100 | – | – | – |
| CCCCCOc1ccc(-c2ccc(CC[C@@H]3CC(=O)NC(C(C)O)C(=O)NC(C)C(=O)NC(Cc4ccc(O)c([N+](=O)[O-])c4)C(=O)NC(C(C)C)C(=O)N4CC(O)CC4C(=O)NC(C(C)O)C(=O)NC(C(C)O)C(=O)N4CCC(O)C4C(=O)NC(C(O)CC(N)=O)C(=O)NCC(=O)NC(C(C)O)C(=O)NC(CCCN)C(=O)N3)cc2)cc1 (stereo partly shown) [Aerothricin 54] ([ξT][ξA][ξTyr(3-NO2)][ξV][ξHyp][ξT][ξT][X1][X2]G[ξT][ξOrn]; linker N-C via X11) | – | 0.17 | 0.15 | 0.74 |
| CCCCCCCCCCCCCCCNC(=O)[C@@H]1CC(=O)NC(C(C)O)C(=O)NC(C)C(=O)NC(Cc2ccc(O)cc2)C(=O)NC(C(C)C)C(=O)N2CC(O)CC2C(=O)NC(C(C)O)C(=O)NC(C(C)O)C(=O)N2CCC(O)C2C(=O)NC(C(O)CC(N)=O)C(=O)NCC(=O)NC(C(C)O)C(=O)NC(CCCN(C)C)C(=O)N1 (stereo partly drawn) [Aerothricin 75] ([ξT][ξA][ξY][ξV][ξHyp][ξT][ξT][X1][X2]G[ξT][X12]D-X13; lactam N-13) | – | 0.10 | 0.15 | 1.40 |
| CCCCCCCCCCCCCCCNC(=O)[C@@H]1CC(=O)NC(C(C)O)C(=O)NC(C)C(=O)NC(Cc2ccc(O)c([N+](=O)[O-])c2)C(=O)NC(C(C)C)C(=O)N2CC(O)CC2C(=O)NC(C(C)O)C(=O)NC(C(C)O)C(=O)N2CCC(O)C2C(=O)NC(C(O)CC(N)=O)C(=O)NCC(=O)NC(C(C)O)C(=O)NC(CCCN)C(=O)N1 (stereo partly drawn) [Aerothricin 77] ([ξT][ξA][ξTyr(3-NO2)][ξV][ξHyp][ξT][ξT][X1][X2]G[ξT][ξOrn]D-X13; lactam N-13) | – | 0.10 | 0.13 | 0.67 |
| CCCCCCCCCCCCCCC[C@@H]1CC(=O)NC(C(C)O)C(=O)NC(C)C(=O)NC(Cc2ccc(O)cc2)C(=O)NC(C(C)C)C(=O)N2CC(O)CC2C(=O)NC(C(C)O)C(=O)NC(C(C)O)C(=O)N2CCC(O)C2C(=O)NC(C(O)CC(N)=O)C(=O)NCC(=O)NC(C(C)O)C(=O)NC(CCCN)C(=O)N1C (stereo partly shown) [Aerothricin 95] (cyclo(G[ξT][ξOrn][X15][ξT][ξA][ξY][ξV][ξHyp][ξT][ξT][X1][X2])) | – | 0.10 | 0.14 | 0.74 |
| CCCCCCCCCCCCC[C@@H]1CC(=O)NC(C(C)O)C(=O)NC(C)C(=O)NC(Cc2ccc(O)cc2)C(=O)NC(C(C)C)C(=O)N2CC(O)CC2C(=O)NC(C(C)O)C(=O)NC(C(C)O)C(=O)N2CCC(O)C2C(=O)NC(C(O)CC(N)=O)C(=O)NCC(=O)NC(C(C)O)C(=O)NC(CCCN(CCCN)C(=O)[C@H](CCCN)N(CCN)CCN)C(=O)O1 (stereo partly shown) [Aerothricin 134] ([ξT][ξA][ξY][ξV][ξHyp][ξT][ξT][X1][X2]G[ξT][X3](Orn(Nα,Nα-(2-aminoethyl)2)); linker N-C via X4) | >100 | – | – | – |
| CCCCCCCCCCCCC[C@@H]1CC(=O)NC(C(C)O)C(=O)NC(C)C(=O)NC(Cc2ccc(O)cc2)C(=O)NC(C(C)C)C(=O)N2CC(O)CC2C(=O)NC(C(C)O)C(=O)NC(C(C)O)C(=O)N2CCC(O)C2C(=O)NC(C(O)CC(N)=O)C(=O)NCC(=O)NC(C(C)O)C(=O)NC(CCCN(CCCN)C(=O)C(CCCN)NCCCN)C(=O)O1 (stereo partly shown) [Aerothricin 136] ([ξT][ξA][ξY][ξV][ξHyp][ξT][ξT][X1][X2]G[ξT][X3](X14); linker N-C via X4) | – | 0.28 | 0.20 | 0.04 |
